From patent publication US20220023181A1, “PEROXIDE-LESS BIOPHOTONIC COMPOSITIONS AND METHODS” (KLOX TECHNOLOGIES LIMITED, priority 2015, published 2022)

Assay: Dilution assay with ROS test assay (liposomes + fluorogenic α-tocopherol probe)
Settings: Example 5 first round; illumination 5 or 9 min per sample
Description: For the dilution assay, an amount of a given gel composition is taken and mixed into a volume of PBS in order to dilute the gel. For example, to make a 10 mL solution ten times diluted, a 1 gram sample of the particular gel is mixed into 9 mL of PBS. Thereafter, depending on the make-up of the sample to be tested, an amount of a particular compound, for example urea peroxide (UP) or a particular salt, could be added in order to either boost an amount of the particular compound that was already in the sample to be tested or to test the effect of adding that given compound per se. With respect to adding UP in order to make test samples with various concentrations to be tested in a concomitant series of tests, an initial sample with a high concentration would be prepared from which aliquots would be taken and diluted down with PBS in order to the test samples with the various concentration of UP. In a multi-well plate, the given diluted sample are mixed with 19.1 μL of the liposome solution (to give a final liposome concentration of 15.4 mg/mL in the test sample) in order to provide a 2 mm thickness of the resulting paste-like mixture, this thickness being equivalent to a thickness of gel that would be spread on a patient or used in an in vitro assay. Also present in the sample-liposome mixture is a quantity of the chemical probe that is used in the reactive oxygen species (ROS) test assay (362.9 μL of the of the diluted gel (i.e., the given gel sample that is to be tested) is mixed with 19.1 μL of liposome-probe, as including the chemical probe in the sample-liposome mixture is to ensure that any ROS species will be afforded a maximal opportunity to interact with the probe and thus be detectable as having been generated as a result of any interaction that may occur in the gel composition upon it becoming activated. […] After the illumination is completed, a 100 μL to 300 μL aliquot of the sample-liposome transferred to a 96-well plate for conducting the ROS test (as further described in (iii) below). For the test samples, stock solutions of the samples were made and diluted such that direct comparisons could be made between the samples (e.g., for the measurement of reactive oxygen species).
The ROS test assay utilized in the experimental protocols of the Examples of the present disclosure is that which is described in Krumova et al. “How Lipid Unsaturation, Peroxyl Radical Partitioning, and Chromanol Lipophilic Tail Affect the Antioxidant Activity of a-Tocopherol: direct Visualization via High-Throughput Fluorescence Studies Conducted with Fluorogenic a-Tocopherol Analogues” (J. Am. Chem. Soc. 2012, vol. 134, pages 10102-10113). The assay utilizes highly sensitive fluorogenic α-tocopherol (TOH) analogues that undergo a 30-fold fluorescence intensity enhancement upon their reaction with peroxyl radicals that are generated due to the oxidation of the liposome membrane with ROS species that may be present in the reaction mixture. The assay utilizes a high-throughput microplate reader that relies on the high sensitivity of the TOH probes and provides a quantitative treatment of the temporal evolution of the fluorescence intensity thereby allowing for kinetic information to be obtained under the conditions being analyzed. The TOH analogues are two-segment receptor-reporter probes that consist of a chromanol moiety coupled to the meso position of a BODIPY fluorophore, either by an ester linker (the probe being called H2B-TOH) or via a methylene linker (the probe being called H2B-PMHC). The chromanol moiety quenches the emission of the fluorophore until it is oxidized following reaction with peroxyl radicals. […]

Question: Which ROS does the source give for `NC(N)=O.OO` [S 20, urea peroxide] here?
Answer: 0.34 µM

Question: Which ROS does the source give for `NC(N)=O.OO` [S 21, urea peroxide] here?
Answer: 0.39 µM

Question: For `NC(N)=O.OO` [S 22, urea peroxide], which ROS is on record?
Answer: 0.49 µM

Question: Which ROS does the source give for `NC(N)=O.OO` [S 23, urea peroxide] here?
Answer: 0.46 µM

Question: For `NC(N)=O.OO` [S 24, urea peroxide], which ROS is on record?
Answer: 0.51 µM

Question: With `NC(N)=O.OO` [S 25, urea peroxide] as the molecule, how does the ROS read?
Answer: 0.56 µM

Question: Which ROS does the source give for `NC(N)=O.OO` [S 26, urea peroxide] here?
Answer: 0.72 µM

Question: Which ROS does the source give for `NC(N)=O.OO` [S 27, urea peroxide] here?
Answer: 0.75 µM

Question: Which ROS does the source give for `NC(N)=O.OO` [S 28, urea peroxide] here?
Answer: 0.87 µM

Question: With `NC(N)=O.OO` [S 29, urea peroxide] as the molecule, how does the ROS read?
Answer: 0.86 µM
